{"source": "patent US8889629B2", "about": "“Use of a cyclic undecapeptide for the preparation of a medicament for administration during myocardial ischaemic events” (Debiopharm International SA, priority 2005, dated 2014)", "key": {"[1]": {"test_system": "myocardial infarction (ischemia-reperfusion)", "assay": "Model of ischemia-reperfusion in the rabbit, cardioprotective effect (infarction size)", "type": "in vivo", "protocol": "The aim of this study is to test the cardioprotective effect of the cyclic undecapeptide of formula (I), otherwise referred to as [MeAla]^3-[EtVal]^4-CsA, in terms of reduction in the size of the myocardial infarction measured 4 hours after the occurrence of the infarction.\nAfter tracheotomy and ventilation with ambient air, a thoracotomy is performed in the fourth left intercostal space. A marginal branch of the left circumflex coronary artery is ligatured using a 3.0 silk suture thread. During the procedure, the temperature, the heart rate and the blood pressure are controlled. After occlusion for 30 minutes, the ligature is released (reperfusion) and the animals are kept in a controlled atmosphere for 4 hours before euthanasia.\nOne group of animals receives the pharmaceutical carrier for [MeAla]^3-[EtVal]^4-CsA, another group is treated with [MeAla]^3-[EtVal]^4-CsA intravenously in the form of a single injection respectively of 20 mg/kg, one minute before the ligature is released. Four hours after the reperfusion, the coronary artery is briefly reoccluded and a blue dye is injected intravenously so as to determine the zone at risk. […] The areas of the zones at risk and of the infarcted myocardium or area of necroses are determined by planimetry. The size of the infarction and the size of the zone at risk are calculated and expressed as percentage of left ventricular weight."}, "[2]": {"test_system": "myocardial infarction (ischemia-reperfusion)", "assay": "Model of ischemia-reperfusion in the mouse, post-infarction period (infarction size, ventricular remodeling, survival)", "type": "in vivo", "protocol": "After anesthesia, the mice are intubated and ventilated with a rodent ventilator. The rectal temperature is controlled and maintained at 38°-39° C. After sternotomy, the anterior interventricular artery is ligatured with an 8-0 polypropylene thread. The ischemia is visualized through the appearance of an elevated ST segment on the ECG (electrocardiogram) and the paleness of the myocardium. After 25 minutes of occlusion, the ligature is released and the reperfusion is verified by visual inspection and disappearance of the upshift in the ST segment. The thoracic wall is closed by suturing and the mice are kept in a controlled-temperature atmosphere.\nOne group of animals receives the carrier for [MeAla]^3-[EtVal]^4-CsA; another group is treated with [MeAla]^3-[EtVal]^4-CsA by intravenous injection (single injection at 10 mg/kg), 3 minutes before the ligature is released. The animals are monitored for 30 days and the mortality is reported for each group.\nFour weeks after the reperfusion, the left ventricular remodeling is studied by Doppler echocardiography and the left ventricular ejection fraction is measured.\nThe zone at risk and the size of the infarction are determined in a group of animals that have undergone 25 minutes of coronary occlusion followed by 24 hours of reperfusion. After a brief reocclusion of the anterior interventricular artery, a blue dye is injected via the vena cava so as to determine the zone at risk. The animals are anesthetized and the heart is excised. The ventricle is cut into 5 thin slices and photographed. Incubation of these slices in 2,3,5-triphenyltetrazolium for 15 minutes at 37° C. makes it possible to differentiate the live (brick red) and necrosed (pale yellow) zones of the myocardium. The slices are photographed. The areas of the zones at risk and of the infarcted myocardium are determined by planimetry. The size of the infarction and the size of the zone at risk are calculated and expressed as percentage of left ventricular weight."}, "[3]": {"test_system": "septic shock with myocardial dysfunction", "assay": "Model of septic shock in the mouse (cecal ligature and puncture), survival", "type": "in vivo", "conditions": "10 mg/kg parenteral injection just after induction of septic shock, 72 hours after induction of the sepsis (FIG. 2)", "protocol": "After the mice had been anesthetized, a peritonitis is induced by cecal ligature and puncture, as follows: a median laparotomy is performed, the cecum is lifted out and a single puncture of said cecum is performed below the ileocecal valve with a 21-gauge needle. The cecum is put back into the abdominal cavity, which is then sutured in 2 planes. After the mice have come round, they are given a parenteral injection of the analgesic nalbuphine.\nOne group of animals receives physiological saline (control group); another group is treated with [MeAla]^3-[EtVal]^4-CsA at a rate of 10 mg/kg by parenteral injection just after surgical induction of septic shock. The animals are monitored for 4 days and the mortality is reported for each group."}, "[4]": {"test_system": "human immunodeficiency virus", "conditions": "cited from earlier work"}, "[5]": {"conditions": "compared with cyclosporin A; cited from earlier work"}, "[6]": {"test_system": "MPTP of mitochondria isolated from the brain", "conditions": "Hansson et al. 2004; cited from earlier work"}}, "data": [{"substance": "[MeAla]^3-[EtVal]^4-CsA", "values": [{"measurement": "decrease in the size of the infarction in the zone at risk compared with pharmaceutical carrier", "setting": "[1]; 20 mg/kg i.v., 4 hours after reperfusion", "result": "~40", "unit": "%"}, {"measurement": "Infarction size (AN/AR ± SD)", "setting": "[1]; 30 min occlusion, single i.v. injection 20 mg/kg one minute before ligature release, measured 4 hours after reperfusion", "result": "29 ± 6.0", "unit": "%"}, {"measurement": "Left ventricular ejection fraction ± SD", "setting": "[2]; mouse, 10 mg/kg i.v. 3 minutes before ligature release, Doppler echocardiography 4 weeks after reperfusion", "result": "77 ± 6", "unit": "%"}, {"measurement": "mortality rate at 4 weeks", "setting": "[2]; mouse, 10 mg/kg i.v. 3 minutes before ligature release, vs carrier (FIG. 1)", "result": "a decrease in the mortality rate"}, {"measurement": "decrease in the size of the infarction in the zone at risk", "setting": "[2]; mouse, 10 mg/kg i.v., 24 hours after reperfusion, vs carrier (table 2)", "result": "~50", "unit": "%"}, {"measurement": "Infarction size (AN/AR ± SD)", "setting": "[2]; mouse, 25 min occlusion, single i.v. injection 10 mg/kg 3 minutes before ligature release, 24 hours after reperfusion", "result": "32.1 ± 7.3", "unit": "%"}, {"measurement": "beneficial effects when administration is too early or too late relative to the reperfusion", "setting": "[2]; same dose of active compound", "result": "not obtained"}, {"measurement": "survival rate", "setting": "[3]", "result": "approximately 60%"}, {"measurement": "activity in terms of inhibiting the action of the human immunodeficiency virus", "setting": "[4]", "result": "strong activity"}, {"measurement": "immunosuppressive properties", "setting": "[5]", "result": "not having the well-known immunosuppressive properties"}, {"measurement": "neuroprotective potential: inhibition of MPTP", "setting": "[6]", "result": "inhibition of MPTP"}]}]}
